Measurements from patent US6866861B1, “Method and composition for enhancing milk component concentrations” (Land O'Lakes, Inc., priority 1999, dated 2005).

Assays:
[1] = tested on: cows; assay: Abomasal infusion of glycerol on an on-off-on schedule, total solids in milk (Example 6, FIG. 3); type: in vivo; settings: 150 g/cow/day abomasal weeks 1-3 and 7-9, water weeks 4-6; average of two cows
Experimental: FIG. 3 is a graph of the concentration of total solids in milk versus time when abomasally infusing glycerol into cattle in accordance with the method of the present invention. To determine the weight percent total solids, wet basis, in a sample, the actual weight of total solids is determined by analyzing the sample in accordance with Method #925.23 (33.2.09) of Official Methods of Analysis, Association of Official Analytical Chemists (AOAC) (16th Ed., 1995). The weight percent total solids, wet basis, is then calculated by dividing the actual weight of total solids by the actual weight of the sample. In Example 6, two cows were abomasally infused at the rate of 150 grams per cow per day of glycerol on an on-off-on schedule to determine whether there were any benefits to intermittently providing glycerol to the abomasum of the cattle. For each cow, glycerol was abomasally infused during weeks 1-3 and weeks 7-9, while water, and not glycerol, was abomasally infused into each cow during weeks 4-6. The results of this test are graphically depicted in FIG. 3 as the concentration, expressed as weight percent, of total solids in the milk produced by the cattle during the test period.

[2] = tested on: cows; assay: Abomasal infusion of glycerol in early lactation cows, milk component concentrations (Example 4); type: in vivo, cow; settings: for Fat / Lactose / Total Solids / True Protein: 150 g/cow/day abomasal, average of 3 cows, early lactation
Experimental: To determine the weight percent total solids, wet basis, in a sample, the actual weight of total solids is determined by analyzing the sample in accordance with Method #925.23 (33.2.09) of Official Methods of Analysis, Association of Official Analytical Chemists (AOAC) (16th Ed., 1995). The weight percent total solids, wet basis, is then calculated by dividing the actual weight of total solids by the actual weight of the sample. The weight percent of true protein, wet basis, for a particular sample is calculated after first determining the wet basis weight percent of total Kjeldahl nitrogen and the wet basis weight percent of non-protein nitrogen in the sample. The wet basis weight percent of total Kjeldahl nitrogen in the sample is determined using the method referenced above. The wet basis weight percent of non-protein nitrogen (NPN) in the sample is determined in accordance with Method #991.21 (33.2.12) of Official Methods of Analysis, Association of Official Analytical Chemists (AOAC) (16th Ed., 1995). The weight percent of true protein, wet basis, in the sample is then determined by subtracting the wet basis weight percent of non-protein nitrogen in the sample from the wet basis weight percent of total Kjeldahl nitrogen in the sample. To determine the weight percent lactose, wet basis, in a liquid sample, the weight of the liquid sample is first determined. The actual weight of lactose in the liquid sample may then be determined using analysis kit number 176-303, that is available from Boehringer-Mannheim of Indianapolis, Ind. in accordance with the procedural instructions included with analysis kit number 176-303. The weight percent lactose, wet basis, in the liquid sample is then calculated by dividing the actual weight of lactose in the liquid sample by the actual weight of the liquid sample. To determine the weight percent fat, wet basis, in a sample, the actual weight of fat in the sample is determined in accordance with Method #974.09 (33.7.18) of Official Methods of Analysis, Association of Official Analytical Chemists (AOAC) (16th Ed., 1995). The weight percent fat, wet basis, is then calculated by dividing the actual weight of fat in the sample by the actual weight of the sample. In this example, glycerol was abomasally infused into three different cows at a rate of 150 grams per cow per day during a 14 day test period. The rations provided to the cows during the period extending from day 0, prior to abomasal infusion of glycerol, through day 14 of the test period were the same. The only difference in feeding of the cows between day 0 and days 1-14 of the test period were that during days 1-14 the cows were abomasally infused with the dosage of 150 grams of glycerol per cow per day. The glycerol was not combined with any other materials prior to being abomasally infused into the cattle. Milk from the three cows was collected and analyzed prior to infusion (on day 0) and also was collected and analyzed on the third, seventh and fourteenth day of the test period. The results presented in Table 4 below for each milk component for each particular day are averages for the milk collected from the three different cows. The net change for the different milk components presented in Table 4 was calculated by averaging the results of days 3, 7 and 14 for a particular milk component and subtracting the results presented for day 0 for the particular milk component. […] This increase in true protein concentration is particularly significant considering that the test cattle were in the early lactation phase (less than 90 days into milk production) when abomasally infused with glycerol. Typically, when being fed ordinary rations, the concentration of true protein in milk produced by lactating cattle decreases as the early lactation phase progresses.

[3] = abomasal infusion, early lactation phase
[4] = milk, average of days 3, 7, 14 minus day 0

With `OCC(O)CO` [glycerol] the “weight percent of total solids in the milk (FIG. 3, in words)” value [1] was “increased”, the “weight percent of fat in the milk (conclusion in words)” value [2, 3] was “substantially stabilized” and the “weight percent of total solids in the milk (conclusion in words)” value [2, 3] was “substantially stabilized”. The “weight percent of true protein in the milk (conclusion in words)” value [2, 3] was “net increase”, the Fat ([2]; milk, Day 3) was 3.80 Wt % and the Lactose ([2]; milk, Day 3) was 4.78 Wt. %. The “Total Solids” value ([2]; milk, Day 3) was 12.67 Wt. %, the “True Protein” value ([2]; milk, Day 3) was 3.33 Wt. % and the Fat ([2]; milk, Day 7) was 3.53 Wt %. For the same compound, the Lactose ([2]; milk, Day 7) was 4.41 Wt. %, the “Total Solids” value ([2]; milk, Day 7) was 12.04 Wt. % and the “True Protein” value ([2]; milk, Day 7) was 3.32 Wt. %. The Fat ([2]; milk, Day 14) was 3.68 Wt %, the Lactose ([2]; milk, Day 14) was 4.51 Wt. % and the “Total Solids” value ([2]; milk, Day 14) was 12.34 Wt. %. For the same compound, the “True Protein” value ([2]; milk, Day 14) was 3.38 Wt. %, the “Fat, Net Change” value [2, 4] was −0.11 Wt % and the “Lactose, Net Change” value [2, 4] was −0.07 Wt. %. For the same compound, the “Total Solids, Net Change” value [2, 4] was −0.05 Wt. %, the “True Protein, Net Change” value [2, 4] was “+0.11 Wt. %” and the “decrease in the weight percent of lactose” value ([2]; milk, net change over test period) was 0.07%.
